According to PubChem BioAssay (NCI):
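Results reflect a 48-hour exposure of cells in 96-well plates to compound at five concentrations. GI50: concentration for 50% inhibition of growth. TGI denotes the concentration required for complete inhibition of growth.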

How the values were obtained:
Assay in all cases: NCI tumour cell line growth inhibition, 48 h
ACHN renal = test system: ACHN renal
SK-MEL-28 melanoma = test system: SK-MEL-28 melanoma
HCT-15 colon = test system: HCT-15 colon
SW-620 colon = test system: SW-620 colon
HT29 colon = test system: HT29 colon
CCRF-CEM leukemia = test system: CCRF-CEM leukemia
NCI-H460 lung = test system: NCI-H460 lung
CAKI-1 renal = test system: CAKI-1 renal
A549 NSCLC = test system: A549 NSCLC
NCI/ADR-RES ovarian = test system: NCI/ADR-RES ovarian

| Structure (SMILES) | TGI (ACHN renal) [µM] | TGI (SK-MEL-28 melanoma) [µM] | TGI (HCT-15 colon) [µM] | TGI (SW-620 colon) [µM] | TGI (HT29 colon) [µM] | TGI (CCRF-CEM leukemia) [µM] | TGI (NCI-H460 lung) [µM] | TGI (CAKI-1 renal) [µM] | TGI (A549 NSCLC) [µM] | TGI (NCI/ADR-RES ovarian) [µM] | GI50 (ACHN renal) [µM] | GI50 (HCT-15 colon) [µM] | GI50 (SW-620 colon) [µM] | GI50 (NCI/ADR-RES ovarian) [µM] | GI50 (HT29 colon) [µM] | GI50 (A549 NSCLC) [µM] | GI50 (CCRF-CEM leukemia) [µM] | GI50 (NCI-H460 lung) [µM] | GI50 (CAKI-1 renal) [µM] | GI50 (SK-MEL-28 melanoma) [µM] |
| --- | --- | --- | --- | --- | --- | --- | --- | --- | --- | --- | --- | --- | --- | --- | --- | --- | --- | --- | --- | --- |
| Cc1ccccc1N=Nc1c(-c2ccccc2)nn(C(=O)CC(=O)Nc2cccc(Cl)c2)c1-c1ccccc1 | > 31.6 | > 31.6 | > 31.6 | > 39.2 | 23.4 | 25.4 | > 31.6 | > 100 | – | – | – | – | – | – | – | – | – | – | – | – |
| O=C(NCc1ccc2ccc3cccnc3c2n1)c1ccc[n+](Cc2ccccc2)c1 | > 100 | > 100 | > 100 | > 100 | > 100 | > 100 | > 100 | – | > 100 | – | – | – | – | – | – | – | – | – | – | – |
| S=C(CSc1ccccc1)Nc1cccc2ccccc12 | > 100 | > 100 | > 100 | > 100 | > 100 | – | > 100 | > 100 | > 100 | > 100 | – | – | – | – | – | – | – | – | – | – |
| O=C(/C(=N/Nc1ccccc1)c1ccc([N+](=O)[O-])cc1)c1ccc([N+](=O)[O-])cc1 | > 100 | > 100 | > 100 | > 100 | > 100 | – | > 100 | > 100 | > 100 | – | – | – | – | – | – | – | – | – | – | – |
| CCCCCCCCCCOC(=O)c1cc[n+](C)cc1 | 33.2 | 31.3 | 29.5 | 34.5 | 31.1 | 37.7 | 38.8 | 30.4 | 31 | – | – | – | – | – | – | – | – | – | – | – |
| CCN(CC)c1ccc(N=Nc2ccc(-c3nc4cccn(C)c-4n3)cc2)cc1 | – | – | 21 | 22.9 | 13.8 | 19.8 | 17.3 | 41.5 | 25.6 | – | – | – | – | – | – | – | – | – | – | – |
| COc1cc2c(c(OC)c1OC)-c1ccc(SC)c(=O)cc1C(CC(=O)Oc1cccc(F)c1)C2 (centres undefined) | > 100 | > 100 | 1.97 | > 100 | 0.557 | > 31.9 | 4.62 | > 73.7 | > 100 | – | – | – | – | – | – | – | – | – | – | – |
| COC(=O)CC(=O)NCC1=CCC(=O)CC1 | – | > 100 | > 100 | > 100 | > 100 | > 100 | > 100 | > 100 | > 100 | – | – | – | – | – | – | – | – | – | – | – |
| CC1(C)C(=O)C(=Cc2ccco2)C1=O | > 100 | > 100 | > 100 | > 100 | > 100 | > 100 | > 100 | > 100 | > 100 | – | – | – | – | – | – | – | – | – | – | – |
| O=c1[nH]c(=O)n(C2CC(O)C(CO)O2)cc1COCC(F)(F)F (centres undefined) | > 100 | – | – | > 100 | > 100 | > 100 | > 100 | > 100 | > 100 | – | – | – | – | – | – | – | – | – | – | – |
| COc1cc2c3c(c1OC)C(=O)C=C3N(S(=O)(=O)c1ccc(C)cc1)CC2 | > 100 | > 100 | > 100 | > 100 | > 100 | > 100 | > 100 | > 100 | > 100 | – | – | – | – | – | – | – | – | – | – | – |
| Clc1ccc(OCc2nnc3n2N=C(c2ccccc2)CS3)c(Cl)c1 | > 100 | > 100 | > 100 | > 100 | > 100 | > 100 | > 100 | > 100 | > 100 | – | – | – | – | – | – | – | – | – | – | – |
| CC(=O)O[C@H](C[C@H](C(C)C)N(C)C(=O)[C@@H](NC(=O)[C@H]1CCCCN1C)C(C)C)c1cccc(C(=O)N[C@@H](Cc2ccccc2)C[C@H](C)C(=O)O)n1 | > 25 | – | > 25 | > 25 | > 8.21 | > 25 | > 13.4 | > 25 | > 25 | > 10.6 | 0.0955 | 0.219 | < 0.0222 | 2.06 | 0.0242 | 0.0666 | 0.0175 | 0.0297 | 0.0686 | – |
| O=C(N/C(=C/c1cccc([N+](=O)[O-])c1)c1nc2ccc(Cl)cc2[nH]1)c1ccccc1 | 48.9 | > 100 | > 100 | 22.8 | 50.9 | 48 | 51.7 | 71.3 | > 100 | – | – | – | – | – | – | – | – | – | – | – |
| C/C(O)=C(\N=O)C(=O)NCc1ccccc1 | > 100 | > 100 | > 100 | 31.4 | > 100 | > 100 | > 100 | > 100 | > 100 | – | – | – | – | – | – | – | – | – | – | – |
| N#C/C(=C\c1ccccc1)C(NO)Nc1ccccc1 (centres undefined) | > 100 | > 100 | > 100 | > 100 | > 100 | > 100 | > 100 | > 100 | > 100 | – | – | – | – | – | – | – | – | – | – | – |
| CC1=C(C(=O)Nc2ccccc2)C(c2cc(Cl)cc(Cl)c2)C(C(=O)Nc2ccccc2)=C(C)N1 | 47.2 | 30.2 | 18.6 | 25.9 | 21.4 | 14.9 | 62.8 | 31.6 | 58.8 | – | – | – | – | – | – | – | – | – | – | – |
| CCC[CH2][Sn]([CH2]CCC)([O]C(=O)c1cccc(F)c1F)[O]C(=O)c1cccc(F)c1F | 2.55 | 2.13 | 2.51 | 1.67 | 2.99 | – | 3.24 | – | 17.5 | – | 1.28 | 1.25 | 0.472 | – | 1.62 | 5.37 | – | 1.7 | – | 0.933 |
| C=Cc1c(C)c2cc3[nH]c(cc4nc(cc5nc(cc1[nH]2)C(C)=C5CCC(=O)N(CC)CC)C(CCC(=O)N(CC)CC)=C4C)c(C)c3C=C | > 100 | > 100 | > 100 | > 100 | > 100 | > 100 | > 100 | – | > 100 | – | – | – | – | – | – | – | – | – | – | – |
| C=C(CO)CC(/C=C(\C)CC/C=C(\C)CCl)OC(C)=O (centres undefined) | > 100 | > 100 | > 100 | > 100 | > 100 | > 100 | > 100 | – | > 100 | – | – | – | – | – | – | – | – | – | – | – |
| COC(=O)CC(C(C(C)=O)C(=O)OCc1ccccc1)N1C(=O)OC(c2ccccc2)C1c1ccccc1 (centres undefined) | > 100 | > 100 | > 100 | > 100 | > 100 | > 100 | > 100 | > 100 | > 100 | – | – | – | – | – | – | – | – | – | – | – |
| O=C([CH-]C(=O)c1ccccc1)c1ccccc1.O=C([CH-]C(=O)c1ccccc1)c1ccccc1.O=C([CH-]C(=O)c1ccccc1)c1ccccc1.[Cl-].[Zr+4] | > 100 | 36.7 | > 100 | > 100 | > 100 | – | 53.8 | 63.8 | > 100 | – | 22 | 18.2 | 33.8 | – | 29 | 33.9 | – | 10.8 | 12.4 | 13.2 |
